In patent US9615576B2, “Pesticidal compositions and processes related thereto” (Dow AgroSciences LLC, priority 2011, dated 2017) one finds mortality data, which are given here for 31 molecules.

In test [1] the test system is Corn Earworm (CEW) (Helicoverpa zea). In words: Bioassays on Corn Earworm (CEW), 128-well diet tray assay. Type of test: in vivo. To be noted: 168 h, 50 μg/cm^2 test compound on artificial diet, second instar larvae, 25° C., five to seven days, average of eight wells, read-out: CEW Rating (% mortality). Summed up:
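Second-instar larvae (one to five per well) placed on artificial diet treated with 50 μg/cm^2 compound in 90:10 acetone-water, dried; eight wells per compound. Held at 25° C, 14:10 light-dark, five to seven days; percent mortality averaged over wells.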

For test [2], the system named is Beet Armyworm (BAW) (Spodoptera exigua). Briefly: Bioassays on Beet Armyworm (BAW), 128-well diet tray assay. It is filed as in vivo. To be noted: 168 h, 50 μg/cm^2 test compound on artificial diet, second instar larvae, 25° C., five to seven days, average of eight wells, read-out: BAW Rating (% mortality). Put shortly: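 Second-instar larvae (1–5 per well) on artificial diet surface-treated with 50 μg/cm^2 compound applied in 90:10 acetone-water and dried; eight wells per compound. Held 5–7 days at 25° C., 14:10 light-dark. Percent mortality scored per well and averaged over eight wells.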

As for `Cc1cc(/C=C/C(c2cc(Cl)cc(Cl)c2)C(F)(F)F)ccc1C(=O)NCc1nc2ccccc2s1` (centres unmarked) [AC42], the mortality (commonly the percentage killed) at 50 µg/cm2 in test [1] was 0%; in test [2], 50 to 100%.
In the case of `CC(=O)c1ncnn1-c1ccc(/C=C/C(c2cc(Cl)cc(Cl)c2)C(F)(F)F)cc1` (centres unmarked) [DC24], the mortality at 50 µg/cm2 in test [1] and in test [2] was 0% each time.
As for `O=C(CC(F)(F)F)NCc1ccc(/C=C/C(c2cc(Cl)c(Cl)c(Cl)c2)C(F)(F)F)c2ccccc12` (centres unmarked) [CC46, (E)-3,3,3-trifluoro-N-((4-(4,4,4-trifluoro-3-(3,4,5-trichlorophenyl)but-1-en-1-yl)naphthalen-1-yl)methyl)propanamide], the mortality at 50 µg/cm2 in test [1] was 50 to 100%; in test [2], 0%.
On to `O=C(NCc1ccc(/C=C/C(c2cc(Cl)c(Cl)c(Cl)c2)C(F)(F)F)cc1Cl)C(=O)NCC(F)(F)F` (centres unmarked) [CC42, (E)-N^1-(2-chloro-4-(4,4,4-trifluoro-3-(3,4,5-trichlorophenyl)but-1-en-1-yl)benzyl)-N^2-(2,2,2-trifluoroethyl)oxalamide], for which the mortality at 50 µg/cm2 in test [1] and in test [2] was 0% throughout.
For the molecule `N#Cc1cc(/C=C/C(c2cc(Cl)c(Cl)c(Cl)c2)C(F)(F)F)ccc1-n1cnc(N)n1` (centres unmarked) [DC41, (E)-2-(3-amino-1H-1,2,4-triazol-1-yl)-5-(4,4,4-trifluoro-3-(3,4,5-trichlorophenyl)but-1-en-1-yl)benzonitrile], the mortality at 50 µg/cm2 in test [1] and in test [2] was 50 to 100% throughout.
Take `FC(F)(F)C(/C=C/c1ccc(-n2cncn2)cc1)c1cccc(Cl)c1Cl` (centres unmarked) [DC14]: the mortality at 50 µg/cm2 in test [1] and in test [2] was 0% each time.
For `FC(F)(F)C(/C=C/c1ccc(-n2cncn2)cc1)c1cc(Cl)cc(Cl)c1Cl` (centres unmarked) [DC17], the mortality at 50 µg/cm2 in test [1] and in test [2] was 50 to 100% each time.
On to `NC(=O)c1cc(/C=C/C(c2cc(Cl)cc(Cl)c2)C(F)(F)F)ccc1-n1cncn1` (centres unmarked) [DC58], for which the mortality at 50 µg/cm2 in test [1] and in test [2] was 0% throughout.
`FC(F)(F)C(/C=C/c1ccc(-n2cncn2)cc1)c1ccc(Cl)cc1` (centres unmarked) [DC4]: the mortality at 50 µg/cm2 is 0% in test [1] and 50 to 100% in test [2].
In the same order, the values of `O=C(NCc1ccc(Cl)nc1)c1ccc(/C=C/C(c2cc(Cl)c(Cl)c(Cl)c2)C(F)(F)F)cc1C(F)(F)F` (centres unmarked) [AC36] are 50 to 100% and 50 to 100%.
In the case of `Cc1ncnn1-c1ccc(/C=C/C(c2cc(Cl)cc(Cl)c2)C(F)(F)F)cc1` (centres unmarked) [DC23], the mortality at 50 µg/cm2 in test [1] was 50 to 100%; in test [2], 0%.
For `O=C(CNC(=O)c1ccc(/C=C/C(c2cc(Cl)c(Cl)c(Cl)c2)C(F)(F)F)cc1Cl)NCC(F)(F)F` (centres unmarked) [AC64, (E)-2-chloro-N-(2-oxo-2-((2,2,2-trifluoroethyl)amino)ethyl)-4-(4,4,4-trifluoro-3-(3,4,5-trichlorophenyl)but-1-en-1-yl)benzamide], the mortality at 50 µg/cm2 in test [1] and in test [2] was 50 to 100% each time.
Regarding `Cc1cc(/C=C/C(c2cc(Cl)cc(Cl)c2)C(F)(F)F)ccc1C(=S)NCc1ccc(Cl)nc1` (centres unmarked) [AC115, (E)-N-((6-chloropyridin-3-yl)methyl)-4-(3-(3,5-dichlorophenyl)-4,4,4-trifluorobut-1-en-1-yl)-2-methylbenzothioamide], the mortality at 50 µg/cm2 in test [1] and in test [2] was 50 to 100% throughout.
For the molecule `N#Cc1cc(/C=C\C(c2cc(Cl)c(F)c(Cl)c2)C(F)(F)F)ccc1-n1cncn1` (centres unmarked) [DC46], the mortality at 50 µg/cm2 in test [1] and in test [2] was 50 to 100% throughout.
Consider `O=C(NCc1ccc(/C=C/C(c2cc(Cl)c(Cl)c(Cl)c2)C(F)(F)F)cc1)C1CC1` (centres unmarked) [CC5], for which the mortality at 50 µg/cm2 in test [1] and in test [2] was 50 to 100% throughout.
Consider `CCNC(=O)NCc1ccc(/C=C/C(c2cc(Cl)c(Cl)c(Cl)c2)C(F)(F)F)cc1C(F)(F)F` (centres unmarked) [CC32], for which the mortality at 50 µg/cm2 in test [1] and in test [2] was 50 to 100% each time.
As to `O=C(NCc1ccc(C(F)(F)F)nc1)c1ccc(/C=C/C(c2cc(Cl)c(Cl)c(Cl)c2)C(F)(F)F)cc1Br` (centres unmarked) [AC75], the mortality at 50 µg/cm2 in test [1] and in test [2] was 50 to 100% in each case.
On to `O=C(NCc1ccc(/C=C/C(c2cc(Cl)cc(Cl)c2)C(F)(F)F)cc1)C1CC1` (centres unmarked) [CC2], for which the mortality at 50 µg/cm2 in test [1] and in test [2] was 50 to 100% in each case.
`O=C(c1ccc(/C=C/C(c2cc(Cl)c(Cl)c(Cl)c2)C(F)(F)F)cc1Br)N1CCN(CC(F)(F)F)CC1` (centres unmarked) [AC101]: the mortality at 50 µg/cm2 in test [1] and in test [2] was 0% each time.
On to `O=C(NC1CCN(C(=O)CC(F)(F)F)CC1)c1ccc(/C=C/C(c2cc(Cl)c(Cl)c(Cl)c2)C(F)(F)F)cc1Br` (centres unmarked) [AC104, (E)-2-bromo-4-(4,4,4-trifluoro-3-(3,4,5-trichlorophenyl)but-1-en-1-yl)-N-(1-(3,3,3-trifluoropropanoyl)piperidin-4-yl)benzamide], for which the mortality at 50 µg/cm2 in test [1] and in test [2] was 50 to 100% throughout.
For the molecule `Cc1cc(/C=C/C(c2cc(Cl)cc(Cl)c2)C(F)(F)F)ccc1C(=O)NC1CSC1` (centres unmarked) [AC10], the mortality at 50 µg/cm2 in test [1] and in test [2] was 50 to 100% throughout.
In the case of `N#Cc1cc(/C=C/C(c2cc(Cl)cc(Cl)c2)C(F)(F)F)ccc1-n1cnc(N)n1` (centres unmarked) [DC38], the mortality at 50 µg/cm2 in test [1] and in test [2] was 50 to 100% in each case.
On to `FC(F)(F)C(/C=C/c1ccc(CNc2ccccn2)c(Cl)c1)c1cc(Cl)c(Cl)c(Cl)c1` (centres unmarked) [CC43, (E)-N-(2-chloro-4-(4,4,4-trifluoro-3-(3,4,5-trichlorophenyl)but-1-en-1-yl)benzyl)pyridin-2-amine], for which the mortality at 50 µg/cm2 lay within 0 to 50% in test [1] and 50 to 100% in test [2].
Take `Cc1cc(/C=C/C(c2cc(Cl)cc(Cl)c2)C(F)(F)F)cc(C#N)c1-n1cncn1` (centres unmarked) [DC44]: the mortality at 50 µg/cm2 in test [1] and in test [2] was 50 to 100% in each case.
Regarding `COc1c(Cl)cc(C(/C=C/c2ccc(-n3cncn3)c(C#N)c2)C(F)(F)F)cc1Cl` (centres unmarked) [DC34], the mortality at 50 µg/cm2 in test [1] and in test [2] was 50 to 100% each time.
On to `O=C(NCc1ccc(Cl)nc1)c1ccc(/C=C/C(c2cc(Cl)cc(Cl)c2)C(F)(F)F)cc1Br` (centres unmarked) [AC46], for which the mortality at 50 µg/cm2 in test [1] and in test [2] was 50 to 100% throughout.
For the molecule `CN(C)C(=O)c1ccc(/C=C/C(c2cc(Cl)cc(Cl)c2)C(F)(F)F)cc1` (centres unmarked) [AC3], the mortality at 50 µg/cm2 in test [1] and in test [2] was 0% throughout.
In the case of `O=C(NCc1ccc(/C=C/C(c2cc(Cl)c(F)c(Cl)c2)C(F)(F)F)cc1Cl)C1CC1` (centres unmarked) [CC15], the mortality at 50 µg/cm2 in test [1] and in test [2] was 50 to 100% each time.
In the case of `Cc1cc(/C=C/C(c2ccc(Cl)c(Cl)c2)C(F)(F)F)ccc1C(=O)NCc1ccc(Cl)nc1` (centres unmarked) [AC37], the mortality at 50 µg/cm2 in test [1] and in test [2] was 50 to 100% each time.
On to `O=C(NC1CCN(C2COC2)CC1)c1ccc(/C=C/C(c2cc(Cl)c(Cl)c(Cl)c2)C(F)(F)F)cc1Br` (centres unmarked) [AC108, (E)-2-bromo-N-(1-(oxetan-3-yl)piperidin-4-yl)-4-(4,4,4-trifluoro-3-(3,4,5-trichlorophenyl)but-1-en-1-yl)benzamide], for which the results for the mortality at 50 µg/cm2 in test [1] and in test [2] were 0% and 0 to 50%, respectively.
Consider `CCC(=O)NCc1ccc(/C=C/C(c2cc(Cl)cc(Cl)c2)C(F)(F)F)cc1` (centres unmarked) [CC4], for which the values for the mortality at 50 µg/cm2 in test [1] and in test [2] were 0 to 50% and 50 to 100%, respectively.
